Assay results published in patent US20100227793A1, “Compositions and Methods for Treating Amyotrophic Lateral Sclerosis” (priority 2009, published 2010).
“Also recorded” adds a separate entry of the source. Each block holds one molecule with its values, some of them ahead of it.

Experiments:
[1] = tested on: inhibition of anterograde FAT by G93A-SOD1; test: Co-perfusion of G93A-SOD1 with kinase inhibitors in squid axoplasm (vesicle motility assay); format: cell-based; settings: for prevention of the inhibition of anterograde FAT induced by G93A-SOD1: co-perfused with recombinant G93A-SOD1 in axoplasm
Method: Increased phosphorylation of neurofilament indicated altered kinase activity with mutant SOD1 and kinases represent a major mechanism for the regulation of conventional kinesin (Donelan, et al. (2002) J. Biol. Chem. 277:24232-42; Morfini, et al. (2006) Nat. Neurosci. 9:907-16; Morfini, et al. (2002) EMBO J. 23:281-93; Morfini, et al. (2001) Dev. Neurosci. 23:364-76). Accordingly, it was determined whether specific protein kinases mediated the effect of mutant SOD1 on anterograde FAT. To this end, axoplasms were co-perfused with recombinant G93A-SOD1 and specific pharmacological or peptide inhibitors of protein kinases. Co-perfusion approaches have facilitated the identification of kinase-dependent pathogenic pathways in other models.
SB203580 is a highly specific pharmacological kinase inhibitor of the mitogen-activated protein kinase (MAPK) p38, and its specificity has been evaluated for more than 100 kinases (Fabian, et al. (2005) Nat. Biotechnol. 23:329-36).
In addition to the docking interactions of MAPKs with MKKs, substrates and regulators there are specific motifs that control the interactions of MKKKs and MKKs. A docking site termed DVD (domain for versatile docking) is found in several MKKs including MKK3 and MKK6, which are involved in p38 regulation. […] Observations of p38 activation in an ALS mouse model prompted the evaluation of the role of MKKs in mediating the inhibitory effect of mutant SOD1 on FAT. To this end, pharmacological inhibitors of MKKKs were co-perfused along with SOD1-G93A in squid axoplasm. The MLK-specific inhibitor CEP11004 (Ganguly, et al. (2004) J. Neurochem. 88(2):469) was ineffective, but co-perfusion of mutant SOD1 with DVD peptide prevented the effects of mutant SOD1 on FAT. The DVD site on MKKs is required for docking and activation by a subset of upstream MKKKs (ASK1, TAK1, etc.), and peptides based on this sequences prevents MAPK activation in cultured cells (Takekawa, et al. (2005) Mol. Cell. 18(3):295).

[2] = tested on: ERK; test: Immunoblot of sister axoplasms with activation-specific phosphoantibodies (ERK); format: cell-based, squid; settings: G93A-SOD1 vs WT-SOD1-perfused axoplasms
Method: (§1) To refine this identification, activation of various p38 and other NF kinases were evaluated in “sister” axoplasms. […] Quantitative analysis of immunoblots indicated G93A-SOD1 induced approximately a 4-fold increase in p38 activity, compared to WT-SOD1 perfused of p38 (n=8).

[3] = tested on: GSK3; test: Immunoblot of sister axoplasms with activation-specific phosphoantibodies (GSK3); format: cell-based, squid; settings: G93A-SOD1 vs WT-SOD1-perfused axoplasms
Method: as §1

[4] = tested on: JNK; test: Immunoblot of sister axoplasms with activation-specific phosphoantibodies (JNK); format: cell-based, squid; settings: G93A-SOD1 vs WT-SOD1-perfused axoplasms
Method: as §1

[5] = tested on: fast axonal transport (FAT), anterograde (conventional kinesin-dependent) and retrograde (CDyn-dependent); test: Vesicle motility assays in isolated squid axoplasm perfused with SOD1 polypeptides; format: cell-based; settings: polypeptides perfused at 5 μM; video-enhanced microscopy over 50 minutes
Method: Although the axonal compartment represents a critical pathogenic target in ALS, axon-specific effects of mutant SOD1 have not been previously addressed. […] However, it was not clear whether those defects resulted from pathogenic events in the neuronal cell body, or from alterations of cellular processes within the axonal compartment (Conforti, et al. (2007) Trends Neurosci. 30:159-66). Therefore, axon-autonomous effects of pathogenic SOD1 on FAT were evaluated using vesicle motility assays in isolated squid axoplasm, which lacks both nuclear and protein synthetic synthesis compartments. This experimental system allows for quantitative analysis of MBOs moving in both anterograde (conventional kinesin-dependent) and retrograde (cytoplasmic dynein-dependent) FAT rates. Further, the lack of plasma membrane in this preparation facilitates an evaluation of the effects of neuropathogenic proteins on FAT.
Highly purified (>95%), recombinant forms of wild-type SOD1 (WT-SOD1) and […] fALS-related SOD1 mutants (G93A-SOD1, G85R-SOD1, H46R and A4V-SOD1) were according to standard methods (Strange, et al. (2003) J. Mol. Biol. 328:877-891). Polypeptides were perfused at 5 μM concentration, and both anterograde (conventional kinesin-dependent) and retrograde (CDyn-dependent) FAT rates analyzed by video-enhanced microscopy over 50 minutes. Perfusion of wild type SOD1 (WT-SOD1) had no effect on either direction of FAT. […] Further, the presence of ATP (5 mM) in the perfusion buffer also ruled out mutant SOD1-induced deficits in ATP production.

[6] = tested on: p38; test: Immunoblot of sister axoplasms with antibodies against phosphorylated, catalytically active p38; format: cell-based, squid; settings: compared to WT-SOD1-perfused axoplasm; n=8
Method: as §1

[7] = tested on: NF220 (neurofilament); test: Metabolic labeling of isolated sister axoplasms with 32P-ATP, autoradiography/PHOSPHORIMAGER; format: cell-based, squid; settings: compared to WT-SOD1-perfused sister axon; 50-minute incubation; n=4; p≦0.0284
Method: To determine whether mutant SOD1 could induce activation of axonal kinases, metabolic labeling experiments were performed in isolated axoplasms. These procedures helped evaluate effects of WT-SOD1 and G93-SOD1 polypeptides on the phosphorylation pattern of axonal proteins. Two axons from the same squid (“sister” axons) were dissected and extruded. One axon was perfused with WT-SOD1, whereas the contralateral “sister” axon was perfused with G93A-SOD1 in the presence of P^32-radiolabelled ATP. After a 50-minute incubation, axoplasms were lysed and analyzed by autoradiography. Neurofilament (NF) proteins represent the major phosphoproteins proteins in both squid axoplasm and mammalian axons. Consistent with this, increased phosphorylation of NFs represents a well-documented feature early in the course of ALS.

[8] = tested on: N2A cells stably transfected with G85R-SOD1; test: Caspase-3 activity assay, cells exposed to cyclosporine (CsA); format: cell-based; settings: various concentrations of CsA, presence or absence of inhibitor
Method: (§2) Multiple studies have documented activation of apoptotic mechanism in association with mutant SOD1 expression (Pasinelli, et al. (2004) Neuron 43:19-30). […] To evaluate the role of p38 in this process, cell viability (LDH) and caspase activity assays were performed using N2A cells stably transfected with WT-SOD1 or G85R-SOD1 constructs. […] N2A cells were exposed to various concentrations of CsA in the presence or absence of the p38 inhibitor SB203580.

[9] = tested on: N2A cells stably transfected with G85R-SOD1; test: Cell viability (LDH) assay, cells exposed to cyclosporine (CsA); format: cell-based; settings: various concentrations of CsA, presence or absence of inhibitor
Method: as §2

[10] = tested on: fast axonal transport (FAT); test: Vesicle motility assays in squid axoplasm perfused with recombinant active p38 isoforms; format: cell-based
Method: Four p38 genes exist in mammals (p38α, p38β, p38γ, and p38δ) (Kyriakis & Avruch (2001) Physiol. Rev. 81:807-69). The p38α and p38β kinases are major p38 isoforms within the nervous system (Lee, et al. (2000) J. Neurosci. Res. 60:623-31), as well as being the most prominent p38 isoforms expressed in motor neurons of the anterior horn spinal cord, the main cell type affected in ALS (Ackerley, et al. (2004) Mol. Cell. Neurosci. 26:354-64). The effect of specific p38 isoforms on FAT was evaluated using vesicle motility assays. The enzymatic activities of recombinant p38 isoforms were first normalized using in vitro kinase assays with ATF-2 as substrate.

[11] = tested on: KHC584 (first 584 amino acid residues of kinesin-1c); test: In vitro kinase assay of recombinant p38α with KHC584; format: biochemical; settings: sites mapped to Ser175 and Ser176 by LC/MS/MS
Description: Although p38α was implicated in mediating the inhibitory effect of pathogenic SOD1 on FAT, specific p38α targets relevant to these effects needed to be determined (Bendotti, et al. (2005) Neurodegener. Dis. 2:128-34). […] These precedents prompted the determination of whether p38α could directly phosphorylate kinesin-1 subunits of conventional kinesin.
Liquid chromatography tandem mass spectrometry (LC/MS/MS) was used to map KHC584 residues phosphorylated by p38α. To this end, in vitro phosphorylated KHC584 was directly digested with trypsin for LC/MS/MS analysis. Trypsin digest products were fractioned on a C18 HPLC connected to an on-line electrospray ion trap mass spectrometer. Peptide identification was done using SEQUEST algorithm. KHC584 identity was confirmed by identification of multiple kinesin-1C peptides. A peptide corresponding to amino acids 174-188 with unequivocal evidence of phosphorylation by p38α was identified based on spectrum analysis, cross correlation and delta correlation values. Tandem mass spectrometry analysis (MS/MS) by collision-induced dissociation further mapped phosphorylation on both Ser175 and Ser176, consistent with studies showing phosphorylation of Ser176 by the MAPK JNK3. Remarkably, serines 175 and 176 are conserved among squid, mouse and human kinesin-1s (FIG. 4). […]

prevention of the inhibition of anterograde FAT induced by G93A-SOD1 [1]: ineffective
Molecule: CEP11004

Molecule: G93A-SOD1: recombinant fALS-related SOD1 mutant G93A
change in ERK activity [2]: did not reveal changes
change in GSK3 activity [3]: did not reveal changes
change in JNK activity [4]: did not reveal changes
effect on anterograde FAT rate [5]: selectively inhibited
increase in p38 activity (p-p38 immunoblot) [6]: ~4 fold
increase in overall NF220 phosphorylation [7]: 2 fold

Molecule: C[S+]([O-])c1ccc(-c2nc(-c3ccncc3)c(-c3ccc(F)cc3)[nH]2)cc1 (stereo not shown) [SB203580]
attenuation of caspase activation (caspase-3 activity) [8]: significant attenuation
attenuation of cell death (LDH) [9]: significant attenuation
anterograde FAT rates compared with WT-SOD1-perfused axoplasm ([1]; co-perfused with G93A-SOD1, FIG. 2): undistinguishable
prevention of the inhibition of anterograde FAT induced by G93A-SOD1 [1]: protective effects; also recorded: completely prevented

Molecule: WT-SOD1: highly purified recombinant wild-type SOD1
effect on anterograde FAT rate [5]: no effect
effect on retrograde FAT rate [5]: no effect

phosphorylation of KHC584 [11]: phosphorylated
Molecule: p38α: recombinant active p38 isoform α
effect on FAT ([10]; perfused at 10 nM): most closely mimicked; also recorded: selective inhibition of anterograde FAT

B1: p3813: recombinant active p38 isoform β (misprinted) (protein, UniProt Q15759 1-364, looked up)
Mitogen-activated protein …: MSGPRAGFYRQELNKTVWEVPQRLQGLRPVGSGAYGSVCSAYDARLRQKVAVKKLSRPFQSLIHARRTYRELRLLKHLKHENVIGLLDVFTPATSIEDFSEVYLVTTLMGADLNNIVKCQALSDEHVQFLVYQLLRGLKYIHSAGIIHRDLKPSNVAVNEDCELRILDFGLARQADEEMTGYVATRWYRAPEIMLNWMHYNQTVDIWSVGCIMAELLQGKALFPGSDYIDQLKRIMEVVGTPSPEVLAKISSEHARTYIQSLPPMPQKDLSSIFRGANPLAIDLLGRMLVLDSDQRVSAAEALAHAYFSQYHDPEDEPEAEPYDESVEAKERTLEEWKELTYQEVLSFKPPEPPKPPGSLEIEQ
effect on FAT ([10]; perfused at 50 nM): inhibited both anterograde and retrograde FAT

B2: p38δ: recombinant active p38 isoform δ (protein, UniProt O15264 1-365, looked up)
Mitogen-activated protein …: MSLIRKKGFYKQDVNKTAWELPKTYVSPTHVGSGAYGSVCSAIDKRSGEKVAIKKLSRPFQSEIFAKRAYRELLLLKHMQHENVIGLLDVFTPASSLRNFYDFYLVMPFMQTDLQKIMGMEFSEEKIQYLVYQMLKGLKYIHSAGVVHRDLKPGNLAVNEDCELKILDFGLARHADAEMTGYVVTRWYRAPEVILSWMHYNQTVDIWSVGCIMAEMLTGKTLFKGKDYLDQLTQILKVTGVPGTEFVQKLNDKAAKSYIQSLPQTPRKDFTQLFPRASPQAADLLEKMLELDVDKRLTAAQALTHPFFEPFRDPEEETEAQQPFDDSLEHEKLTVDEWKQHIYKEIVNFSPIARKDSRRRSGMKL
effect on FAT ([10]; perfused at 50 nM): no effect
effect on FAT ([10]; perfused at 50 nM, listed as p385): did not affect FAT

B3: p38γ: recombinant active p38 isoform γ (protein, UniProt P53778 1-367, looked up)
Mitogen-activated protein …: MSSPPPARSGFYRQEVTKTAWEVRAVYRDLQPVGSGAYGAVCSAVDGRTGAKVAIKKLYRPFQSELFAKRAYRELRLLKHMRHENVIGLLDVFTPDETLDDFTDFYLVMPFMGTDLGKLMKHEKLGEDRIQFLVYQMLKGLRYIHAAGIIHRDLKPGNLAVNEDCELKILDFGLARQADSEMTGYVVTRWYRAPEVILNWMRYTQTVDIWSVGCIMAEMITGKTLFKGSDHLDQLKEIMKVTGTPPAEFVQRLQSDEAKNYMKGLPELEKKDFASILTNASPLAVNLLEKMLVLDAEQRVTAGEALAHPYFESLHDTEDEPQVQKYDDSFDDVDRTLDEWKRVTYKEVLSFKPPRQLGARVSKETPL
effect on FAT ([10]; perfused at 100 nM): lesser extent; also recorded: more modest effect
